The values that follow are results of earlier work, collected in patent publication US20100048598A1, “TOPICAL COMPOSITIONS COMPRISING 5-ALPHA REDUCTASE INHIBITORS” (priority 2008, published 2010).

The target of one series is T1, type II 5α-reductase (Homo sapiens, UniProt P31213).
T1 sequence (P31213 1-254): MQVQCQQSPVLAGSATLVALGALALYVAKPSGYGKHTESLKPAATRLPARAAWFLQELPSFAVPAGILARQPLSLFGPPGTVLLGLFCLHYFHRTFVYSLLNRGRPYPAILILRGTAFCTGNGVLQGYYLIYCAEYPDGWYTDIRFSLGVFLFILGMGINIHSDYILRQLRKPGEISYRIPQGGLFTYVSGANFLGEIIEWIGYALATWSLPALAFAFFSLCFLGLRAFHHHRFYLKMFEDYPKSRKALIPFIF
The settings on record: relative to finasteride.

For another series, the target named is T2, type I 5α-reductase (Homo sapiens, UniProt P18405).
T2 sequence (P18405 1-259): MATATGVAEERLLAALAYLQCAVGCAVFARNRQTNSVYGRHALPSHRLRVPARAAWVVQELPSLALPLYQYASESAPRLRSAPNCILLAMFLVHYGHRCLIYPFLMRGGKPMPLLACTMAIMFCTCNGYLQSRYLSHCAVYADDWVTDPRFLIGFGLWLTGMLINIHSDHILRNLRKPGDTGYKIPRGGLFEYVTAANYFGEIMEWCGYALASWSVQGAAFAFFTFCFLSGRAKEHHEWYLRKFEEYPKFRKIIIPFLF
The settings on record: relative to finasteride.

For series [1] the following is noted: orally administered.
The test system of a further series is DHT. The settings on record: daily oral 1 mg dose.
For a further series, the system named is androgenic alopecia. The settings on record: 1 mg/day, treated men.

`C[C@]12C=CC(=O)N[C@@H]1CC[C@@H]1[C@@H]2CC[C@]2(C)[C@@H](C(=O)Nc3cc(C(F)(F)F)ccc3C(F)(F)F)CC[C@@H]12` [Dutasteride, (5α,17β)-N-{2,5-bis(trifluoromethyl)phenyl}-3-oxo-4-azaandrost-1-ene-17-carboxamide]: the “potency at inhibiting type II 5α-reductase as compared with finasteride” value on type II 5α-reductase is reported as “approximately 3 times”. Further, the “potency at inhibiting the type I isoform as compared with finasteride” value at type I 5α-reductase is given as “more than 100 times”. The solubility in ethanol result (ethanol) is reported as “soluble”. Also, the solubility in methanol result (methanol) is given as “soluble”. Moreover, under “polyethylene glycol 400”, the “solubility in polyethylene glycol 400” value was “soluble”. For the same compound, the solubility in water entry (water) is “insoluble”. The Absolute bioavailability entry in series [1] is listed as “about 60%”. For the same compound, in series [1] (range in brackets), the “Absolute bioavailability, range” value is 40%-94%.

As for `CC(C)(C)NC(=O)[C@H]1CC[C@H]2[C@@H]3CC[C@H]4NC(=O)C=C[C@]4(C)[C@H]3CC[C@]12C` [Finasteride], in the series on DHT, the “scalp DHT reduction” value is 64% and the “serum DHT reduction” value is given as 68%. In addition, the “progression of hair loss and hair growth compared with control group” value with androgenic alopecia was “slowed the progression of hair loss and increased hair growth”.
